These results are taken from ChEMBL document CHEMBL3596189, “Perspective: Challenges and opportunities in TB drug discovery from phenotypic screening” (Bioorg Med Chem, 2015).

The subject of series [1] is Mycobacterium tuberculosis. Put plainly: Antimycobacterial activity against Mycobacterium tuberculosis assessed as inhibition of bacterial growth measured in glycerol-containing medium. The format is functional.
Series [2] has as its system Mycobacterium tuberculosis. Kind of series: Antimycobacterial activity against Mycobacterium tuberculosis infected in mouse assessed as reduction of lung bacterial load at 25 mg/kg, po. The class given is functional.
Series [3] in a line: Oral bioavailability in mouse. The class given is ADME, organism-based. The note with it: in vivo.
Series [4] in a line: Systemic clearance in mouse. The format is ADME, organism-based. The note with it: in vivo.
Series [5] can be described thus: Elimination half life in mouse. The class given is ADME, organism-based. As to conditions: in vivo, read-out: beta t1/2 (converted).
Series [6] is described as follows: Volume of distribution in mouse. The format is ADME, organism-based. The note with it: in vivo.
The test system of series [7] is Mycobacterium tuberculosis. Kind of series: Antimycobacterial activity against Mycobacterium tuberculosis infected in mouse assessed as log reduction of lung bacterial load at 50 mg/kg administered for 4 weeks. The class given is functional.

The MIC50 is the lowest concentration that inhibits either 50% of growth or 50% of the strains tested, depending on the study. In general, bioavailability refers to the share of a dose that reaches the circulation, judged against a reference dose that is usually intravenous. For orientation: clearance means the rate of elimination divided by the concentration. Low values mean inefficient removal, high ones efficient removal. As a reminder, the Vd is a proportionality between amount in the body and measured concentration, not a real space. Read a high Vd as extensive tissue distribution.

Converted amounts (≈) assume the structure as drawn.

For the molecule `Cc1nc2ccccn2c1C(=O)NCc1ccccc1`, the MIC50 in series [1] amounted to 0.2 µM (≈ 0.0531 µg/mL).

As to `Cc1cc(C)c2cc(C(=O)NC3CCCCC3)[nH]c2c1`, the MIC50 in series [1] amounted to 0.8 µM (≈ 0.216 µg/mL).

`Cc1ccc([C@H]2C[C@@H](C(F)(F)F)n3ncc(C(=O)NCc4ccc(F)cc4)c3N2)cc1`: the log10cfu in series [2] is given as 3.5. In series [1], the MIC50 came to 0.2 µM (≈ 0.0865 µg/mL).

In series [3], `CC1(C)CCC(NC(=O)c2cc3c(Cl)cc(Cl)cc3[nH]2)CC1` returned a bioavailability above 50%. In addition, the clearance in series [4] was determined as 18.1 mL/min/kg. Also, in series [5], the half-life was 5.1 h. For the same molecule, in series [1], the MIC50 was determined as 0.02 µM (≈ 0.00679 µg/mL). Also, in series [6], the volume of distribution (Vd) came to 4.1 L/kg.

`CC(=O)Nc1ccc(C)c(Nc2nccn2-c2cc(NC3CC3)ncn2)c1`: the MIC50 in series [1] was found to be 1 µM (≈ 0.363 µg/mL).

In the case of `Cc1ccc(CNC(=O)c2cnn3c2NC(c2ccccc2)CC3C(F)(F)F)cc1` (stereo unspecified), the MIC50 in series [1] was determined as 1.9 µM (≈ 0.787 µg/mL).

Turning to `CC(C)Cc1cc(O)c(-c2ccccc2)c(=O)[nH]1`, the MIC50 in series [1] came to 2.2 µM (≈ 0.535 µg/mL).

Take `Cc1ccc(C(=O)N2CCOCC2)cc1Nc1nccn1-c1cc(NC2CC2)ncn1`: in series [1], the MIC50 amounted to 0.04 µM (≈ 0.0168 µg/mL).

As to `Cc1ccc2nc(C)c(C(=O)NCc3ccc(-c4ccncc4)cc3)n2c1`, the MIC50 in series [1] worked out at 0.01 µM (≈ 0.00356 µg/mL). The log10cfu in series [7] came out at 1.

Regarding `CC1(C)CCC(Cc2cc(O)c(-c3ccccc3)c(=O)[nH]2)CC1`, in series [1], the MIC50 turned out to be 0.03 µM (≈ 0.00934 µg/mL).
